From paper PMC12266748, “A Xanthine Derivative With Novel Heat Shock Protein 90‐Alpha Inhibitory and Senolytic Properties” (Aging Cell, 2025)
Where two headings read alike, the source gives them in different places.

How the values were obtained:
[1] = molecular target: T1, HSP90α (Homo sapiens, UniProt P07900); experiment: HSP90 N-Terminal Domain Assay Kit, fluorescence polarization competition with FITC-Geldanamycin; assay type: binding; design: purchased BPS Bioscience 50293; settings: dose-response 1 pM to 10 μM, n = 3, extrapolated with GraphPad Prism; read-out: HSP90α inhibition IC50
Description: HSP90‐directed inhibitory activity was assessed employing the HSP90 N‐Terminal Domain Assay Kit (BPS Bioscience) according to the manufacturer's instructions. The fluorescence intensity was measured with a multiplate reader (Victor Nivo‐Perkin Elmer). The IC50 was calculated by analyzing the data using GraphPad Prism 10 software.
HSP90 inhibition activity assay. […] […] […] Data are the percentage of residual enzyme activity relative to the solvent (DMSO). The IC50s were calculated by analyzing the data using GraphPad Prism 10 software.

[2] = molecular target: T1, HSP90α; experiment: Cellular thermal shift assay (CETSA) on cellular lysates, HSP90α; settings: 46°C, compound 0.5 mM
Description: Cellular Thermal Shift Assay (CETSA). […] Briefly, the cellular extract was lysed in RIPA buffer (10 mM Tris-HCl pH 7.4, 250 mM NaCl, 1% NP40/IGEPAL, 1% DOC, 0.01% SDS, 0.01% Glycerol, supplemented with protease/phosphatase inhibitor, PI/PhI mix and 2 mM DTT) and protein concentration was determined by a BCA kit (Pierce, Life Technologies, TFS, Waltham, MA, USA). Samples were homogenized by 3 cycles of freeze-thawing using liquid nitrogen and centrifuged at 13000 rpm at 4 °C for 30 min to separate the soluble fraction from the debris.
Following the supplier's recommendations, samples were loaded into the proper cartridge (12- 230 kDa Wes/Jess Separation Modules, ProteinSimple, Biotechne, Minneapolis, MN, USA). HSP90α (1:50, MsMAb, Abcam), HSP90β (1:50, RbMAb, Abcam), GRP94 (1:50, RbMAb, Abcam), TRAP1 (1:50, MsMAb, Abcam), α-Tubulin (1:500, MsMAb, Abcam), and β-Actin (1:500, RbMAb, Abcam) were used as primary antibodies. Secondary antibodies were Anti-Mouse Secondary HRP and Anti-Rabbit Secondary HRP (ProteinSimple, Biotechne, Minneapolis, MN, USA).

[3] = system: IMR90 cells; experiment: In vitro screening of the 14 in silico-selected compounds, surviving cell count, proliferating vs senescent IMR90; assay type: cell-based, Homo sapiens; settings: 48 h; for effect on non-senescent IMR90 cells: PD15-PD17, 1 μM; for senolytic activity on senescent IMR90 cells: PD19-PD21, 1 μM
Excerpt: (§1) IMR90 and WI38 lung fibroblasts were purchased from ECACC‐Merck. Human bone marrow (BM)‐derived mesenchymal stromal cells (MSCs) were purchased from Lonza. Human umbilical vein endothelial cells (HUVECs) are primary cells obtained from a pool of donors purchased from Clonetics (Lonza). Murine ear fibroblasts (MearFs) were obtained from C57BL/6J mice maintained in the INRCA “Specific Pathogen Free” (SPF) animal facility. MCF7 breast cancer cells were purchased from ATCC. For dose–response curves, IMR90 and WI38 were induced to senescence through replicative passages; MSCs, HUVECs, and MearFs senescence was induced with Doxorubicin; MCF7 senescence was induced with 4‐Hydroxytamoxifen (Lee et al. [2014]). The EC50 was calculated using GraphPad Prism 10 software. All treatment specifications are reported in the extended section.
(§2) Cell culture and treatment. IMR90 cells (Homo sapiens, fetal lung, fibroblast) and WI38 cells (Homo sapiens, fetal lung, fibroblast) were purchased from ECACC-Merck (Merck, Darmstadt, Germany) and cultured in MEM medium (Euroclone, Milano, Italy) supplemented with 1% L-Glutamine (Euroclone, Milano, Italy), 1% Penicillin-Streptomycin (Euroclone, Milano, Italy), and 10% Fetal Bovine Serum (FBS, Euroclone, Milano, Italy), at 37°C, 5% CO2. IMR90 cells with a population doubling (PD) from PD15 to PD23 were used; cells were considered incrementally senescent from passage PD19 to passage PD23. WI38 cells were used from PD26 to PD53. Cells were considered incrementally senescent from passage PD49 to passage PD53. For the compounds in vitro screening, IMR90 cells with passages from PD15 to PD23 were tested at increasing concentrations of 0.5 μM, 1 μM, 10 μM, and 25 μM over 24 and 48 h to evaluate the compounds' efficacy and cytotoxicity compared to the Vehicle (DMSO ≤ 0.1%). Cells were counted manually, in triplicate, using Trypan blue reagent (Euroclone) and disposable Bürker chambers. […] K5 dose-response proliferation curves were performed with compound K5 (Molport, SIA, Riga, Latvia) in concentrations 0.1, 0.5, 1, 5, 10, 50, 100, and 200 μM for 48 h. Cells were counted using a Trypan blue reagent and EVAplus cell counter. The EC50s were calculated by analyzing the data using GraphPad Prism 10 software.

[4] = system: IMR90 cells; experiment: Dose-response curves on proliferating and replicative senescent IMR90 (Trypan blue cell count); assay type: cell-based
Excerpt: as §1, §2
MCF7 cell line (ATCC; HTB-22, Homo sapiens, breast cancer) was purchased from ATCC; cells were grown in MEM medium (Corning, New York, USA, #15-010-CVR) supplemented with 10% FBS (Gibco, Invitrogen, Carlsbad, CA, USA, #10270106), 1% glutamine (Corning #25005-CI), 1% penicillin and streptomycin (Corning #30002-CI). Cells were incubated at 37 °C with 5% CO2. Senescent status induction: MCF7 were plated 24 h before the treatment with 4-Hydroxytamoxifen (TAM) 10 μM to induce the senescence described by (Lee et al. 2014). Control cultures were treated with equal volumes of 75% ethanol as the vehicle. The treatment with TAM lasts 96 h, after which the cells have been washed and treated with the senolytic drugs K5 10 µM for another 96 h. The treatment with the senolytic compounds has been renewed at 48 h. Cell mortality and vitality curves after treatment with K5 (10 μM, orange) or Vehicle (DMSO, grey) were monitored using the Incucyte live-cell Analysis system (Sartorius, Goettingen, Germany). The estimated Senolytic index (SI) was calculated as the ratio between the EC50 in proliferating cells and the EC50 in senescent cells, extrapolated using GraphPad Prism 10 software.

[5] = system: IMR90 cells; experiment: as above; assay type: cell-based; settings: proliferating IMR90 (PD14), 48 h
[6] = system: IMR90 cells; experiment: Immunofluorescence of Cytochrome C / mitochondria colocalization in senescent IMR90; assay type: cell-based, Homo sapiens; settings: senescent IMR90 (PD21), 48 h, K5 25 μM, Dasatinib 1 μM; Vehicle OR = 0.913
Description: (§3) Treated/untreated senescent IMR90 and MCF7 cells were fixed, permeabilized, and stained following suppliers' recommendations. Images were acquired using an Olympus IX83 research inverted microscope (IF) and a phase microscopy Nikon ECLIPSE Ei R (IHC) at 40× MAG.
(§4) Immunofluorescence staining. Treated/untreated IMR90 and MCF7 cells were cultured in LabTek II chamber slides (Nunc, Biosigma). At the final time point, cells were stained with 500 nM MitoTracker Orange (Thermo Fisher Scientific) for 30 min at 37°C and then fixed in 4% PFA (Merck) for 10 min, RT, and permeabilized with 0.1% Triton solution (Merck) for 30 min at RT. Samples were blocked in 5% BSA for 90 min, incubated overnight at 4°C with primary antibody against Cytochrome C (1:50, RbMAb, Abcam), and 1h at RT with secondary antibody Alexa Fluor 488 goat anti-Rb (1:200, Thermo Fisher Scientific). Nuclei were stained with DAPI (Cell Signaling) for 10 min at RT, and ProLong Glass Antifade Mountant (Thermo Fisher Scientific) was used to seal coverslips. Images were acquired using an Olympus IX83 research inverted microscope at 40X magnifications.

[7] = system: MCF7 cells; experiment: Immunofluorescence of Cytochrome C / mitochondria colocalization in senescent MCF7; assay type: cell-based, Homo sapiens; settings: MCF7, TAM 10 µM 96 h, then 72 h K5 10 µM or Dasatinib 1 µM
Description: as §3, §4

## Cn1c(=O)c2c(ncn2C)n(C)c1=O [Caffeine, reference compound]
[1]
  IC50: > 300000 nM
[2]
  interaction / stabilization of HSP90α in CETSA: does not interact with the protein

## CO[C@H]1/C=C\C=C(/C)C(=O)NC2=CC(=O)C(NCCN(C)C)=C(C[C@@H](C)C[C@H](OC)[C@H](O)[C@@H](C)/C=C(\C)[C@@H]1OC(N)=O)C2=O [Compound 17-DMAG]
[3]
  effect on non-senescent IMR90 cells: cytotoxic effects also visible in non
[4]; IMR90, Replicative/passages
  Senolytic evidence (no, partly/yes): Yes
[4]; IMR90, Replicative/passages, read-out: EC50 senescent cells
  EC50: 85 nM
[4]; IMR90, read-out: EC50 proliferating cells
  EC50: 780 nM
[5]
  EC50: 785 nM

## Cc1[nH]nc(-c2ccc(O)cc2O)c1Oc1ccc(F)cc1 [Compound B2, 4-[4-(4-fluorophenoxy)-5-methyl-1H-pyrazol-3-yl]benzene-1,3-diol]
[3]
  senolytic activity on senescent IMR90 cells: evident senolytic activity

## O=S(=O)(NCc1ccc(-c2ccc(F)cc2F)o1)c1ccccc1 [Compound C2, N-{[5-(2,4-difluorophenyl)furan-2-yl]methyl}benzenesulfonamide]
[3]
  senolytic activity on senescent IMR90 cells: evident senolytic activity

## Cc1nc(Nc2ncc(C(=O)Nc3c(C)cccc3Cl)s2)cc(N2CCN(CCO)CC2)n1 [Dasatinib, reference compound]
[6]
  Cytochrome C / mitochondria colocalization, Overlap R (OR): 0.639
[7]; TAM + Vehicle OR = 0.978
  Cytochrome C / mitochondria colocalization, Overlap R (OR): 0.956
[7]; TAM + Vehicle PRr = 0.961
  Cytochrome C / mitochondria colocalization, Pearson's Rr (PRr): 0.928

## CC(C)c1cc(-c2n[nH]c(=O)n2-c2ccc3c(ccn3C)c2)c(O)cc1O [Ganetespib]
[3]
  effect on non-senescent IMR90 cells: cytotoxic effects also visible in non
[4]; Homo sapiens, IMR-90, IMR90, Replicative/passages, read-out: EC50 senescent cells
  EC50: 87 nM
[4]; Homo sapiens, IMR-90, IMR90, read-out: EC50 proliferating cells
  EC50: 1000 nM
[4]; IMR90, Replicative/passages
  Senolytic evidence (no, partly/yes): Yes
[5]; Homo sapiens, IMR-90
  EC50: 1040 nM
